Test results: BigSolDB 2.1

CC(=O)c1ccc(S(C)(=O)=O)cc1
solubility (mole fraction)
Conditions	in cyclohexane	in ethanol	in ethyl acetate	in ethylene glycol	in isobutanol	in methanol	in n-butanol	in n-hexane	in n-propanol
278.15 K	0.0049	0.0123	0.0253	0.0179	0.0074	0.0161	0.0087	0.003	0.0104
283.15 K	0.0056	0.0137	0.027	0.0194	0.0083	0.0173	0.0096	0.0038	0.0114
288.15 K	0.0065	0.0154	0.0295	0.0211	0.0094	0.019	0.0111	0.0049	0.0129
293.15 K	0.0079	0.0172	0.0326	0.0238	0.0108	0.0215	0.0125	0.0062	0.0144
298.15 K	0.0091	0.0197	0.0361	0.0273	0.0124	0.0246	0.014	0.0077	0.0162
303.15 K	0.0109	0.0221	0.0402	0.0307	0.0142	0.0281	0.016	0.0099	0.0185
308.15 K	0.0129	0.0249	0.0446	0.035	0.016	0.0321	0.018	0.0121	0.021
313.15 K	0.0154	0.0283	0.0501	0.0395	0.0186	0.0369	0.0205	0.0146	0.0241
318.15 K	0.0182	0.0325	0.0565	0.045	0.0211	0.0421	0.0234	0.0171	0.0273
323.15 K	0.0217	0.0381	0.0639	0.0507	0.0246	0.0481	0.0271	0.0204	0.0318
328.15 K	0.0255	0.0441	0.0745	0.0597	0.0284	0.0568	0.0315	0.0241	0.0365
